# Reference: publication PMC10539329, “NLRP6 potentiates PI3K/AKT signalling by promoting autophagic degradation of p85α to drive tumorigenesis” (Nature Communications, 2023)
# Peptide text beside a SMILES is read from it.
# B1: HRP-conjugated Pep9: Horseradish peroxidase (HRP)-conjugated Pep9 (conjugate)
# peptide: EADVEQQALTLPDLAEQFAPPDIAPPLLIKLVEAIEKKGLECSTLYRTQSSSNLAELRQLLDCDTPSVDLEMIDVHVLADAFKRYLLDLPNPVIPAAVYSEMISLAPEVQSSEEYIQLLKKLIRSPSIPHQYWLTLQYLLKHFFKLSQTSSKNLLNARVLSEIFSPMLFRFSAASSDNTENLIKVIEILISTEWNERQPAPALPPKPPKPTTVAN
# modifications: left off: HRP, end not stated, kept
# Key:
# [1] = tested on: p85α in LN229 cells; assay: NLRP6-induced p85α degradation with pathway inhibitors, immunoblot, LN229; format: cell-based, Human; conditions: LN229 cells transfected with Flag-NLRP6, immunoblot
# Protocol: (§1) For coimmunoprecipitation, cell lysate was collected and incubated with the indicated antibody at 4 °C overnight followed by incubation with Protein A/G beads (Pierce, IL, USA) at 4 °C for 2 h. The unbound proteins were washed away with lysis buffer. The precipitated proteins were separated from the beads. To detect protein expression in frozen tissues or cells, total protein was extracted using RIPA lysis buffer (Beyotime, Shanghai, China) supplemented with protease and phosphatase inhibitors (Beyotime, Shanghai, China). The protein concentration was determined using a BCA protein quantification kit (Beyotime, Shanghai, China) or BCA Protein Assay Kit (BEB, Nanjing, China). The proteins were separated by SDS–PAGE, transferred to polyvinylidene fluoride (PVDF) membranes (Bio–Rad, CA, USA), and incubated with the indicated antibodies. The bands were detected with the ECL Advanced Western blot Detection Kit (Thermo Fisher Scientific, MA, USA) or Super ECL Chemiluminescent Substrate Kit (BEB, Nanjing, China) on a ChemiDoc Touch System (Bio–Rad, CA, USA) or Tanon 4600 (Tanon, Shanghai, China). The band intensities were quantified using Image Lab software (Bio–Rad, CA, USA) or ImageJ software (National Institutes of Health, MD, USA).
# [2] = tested on: AKT; conditions: cited from earlier work
# Protocol: To investigate whether NLRs could regulate PI3K/AKT pathway, the FOXO luciferase reporter assay was performed to detect the transcriptional activity of FOXO, which is one of the best characterized targets of PI3K/AKT pathway. Two independent oligonucleotides targeting each of 22 human NLRs were mixed and transfected into LN229 cells. The nontargeting oligonucleotides served as a negative control. The knockdown efficiency targeting each NLR was confirmed by qRT-PCR (Supplementary Fig. 1a). […] Thus, interrupting the interaction between NLRP6 and p85α appears to be an attractive strategy to inhibit tumour growth. α-Helices are the fundamental recognition elements in protein-protein interactions and may serve as ideal inhibitors of macromolecular interactions. According to the observations that the SR domain (amino acids 1–301) on p85α interacted with the NOD domain (amino acids 1 ...
# [3] = tested on: PI3K/AKT pathway; assay: PI3K/AKT activation by NLRP6 overexpression with MK-2206; format: cell-based
# Protocol: as §1
# [4] = target: T1, recombinant NLRP6 (Homo sapiens, UniProt P59044); assay: Biolayer interferometry (BLI) binding of peptides to recombinant NLRP6; conditions: Octet Red 96, biotin-NLRP6 on streptavidin biosensors, 30 °C, PBS with 0.01% Tween-20, global 1:1 fitting, printed in picture Fig. 6b, representative of three independent experiments
# T1 construct: DNA encoding full-length NLRP6 was codon optimized; His (N); MBP (N); made in house; host or cells: E. coli (DE3)
# T1 sequence (P59044 1-892): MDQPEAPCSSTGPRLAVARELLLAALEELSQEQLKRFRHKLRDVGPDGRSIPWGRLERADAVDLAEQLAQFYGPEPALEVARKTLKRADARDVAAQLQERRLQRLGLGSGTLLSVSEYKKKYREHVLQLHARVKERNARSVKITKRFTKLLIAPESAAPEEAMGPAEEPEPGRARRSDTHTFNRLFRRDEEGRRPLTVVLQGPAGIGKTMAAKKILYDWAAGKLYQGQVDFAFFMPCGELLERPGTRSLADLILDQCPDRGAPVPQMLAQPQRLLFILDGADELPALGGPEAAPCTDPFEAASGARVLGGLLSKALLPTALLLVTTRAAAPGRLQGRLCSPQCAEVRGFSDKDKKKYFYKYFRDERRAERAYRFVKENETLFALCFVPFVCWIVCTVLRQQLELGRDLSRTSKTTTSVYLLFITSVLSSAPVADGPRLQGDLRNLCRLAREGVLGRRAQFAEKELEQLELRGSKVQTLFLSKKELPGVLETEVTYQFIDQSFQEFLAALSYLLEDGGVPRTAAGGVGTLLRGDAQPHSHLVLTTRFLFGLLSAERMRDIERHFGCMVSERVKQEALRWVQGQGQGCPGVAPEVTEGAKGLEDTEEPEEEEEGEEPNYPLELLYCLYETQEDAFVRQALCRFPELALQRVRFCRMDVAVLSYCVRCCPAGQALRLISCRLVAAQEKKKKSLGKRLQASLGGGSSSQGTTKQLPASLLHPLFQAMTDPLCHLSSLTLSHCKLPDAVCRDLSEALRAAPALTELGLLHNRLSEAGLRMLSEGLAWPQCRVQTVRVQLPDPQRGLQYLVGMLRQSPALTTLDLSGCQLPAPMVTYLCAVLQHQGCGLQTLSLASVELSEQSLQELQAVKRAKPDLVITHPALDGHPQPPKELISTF
# Protocol: DNA encoding full-length NLRP6 was codon optimized and chemically synthesized by Genewiz (Soochow, China). The DNA sequence was subcloned into NdeI-XhoI sites of a pDB-His-MBP vector (kindly given by Pro. Chenggui Han, China Agricultural University, Beijing, China). Recombinant NLRP6 protein was expressed and purified following previous reports, with slight modifications. Briefly, the protein was expressed in E. coli (DE3) at 16 °C with 0.5 mM IPTG induction overnight. Then, the protein was purified by Ni affinity and gel filtration chromatography. The p85α WT and p85α mutant sequences were chemically synthesized and subcloned into BamHI-XhoI sites of a pGEX-6P-1 plasmid by GenScript (Nanjing, China). The E. coli (DE3) transformed with the plasmids were grown in LB medium at 37 °C. The culture medium was supplemented with 0.5 mM IPTG followed by incubation at 16 °C for 16–18 h. […] The protein extinction coefficient was calculated by ProtParam, and the protein concentration was determined by the ultraviolet spectrophotometry method.
# Eleven α-helical peptides were synthesized (Supplementary Data 7). […] The interaction between the peptides and NLRP6 was determined by BLI using an Octet Red 96 instrument (FortéBio, CA, USA). […] Responses (nanometre shift) were calculated using data that were double reference subtracted using reference wells and nonspecific binding of the biosensor to the analyte. […]
# [5] = tested on: PI3K/AKT pathway; assay: Immunoblot of PI3K/AKT pathway with Pep9 and SC-79; format: cell-based
# Protocol: as §1
# [6] = tested on: purified NLRP6; assay: ELISA, binding of HRP-conjugated peptide to purified NLRP6; conditions: ELISA, 1 h
# Protocol: DNA encoding full-length NLRP6 was codon optimized and chemically synthesized by Genewiz (Soochow, China). The DNA sequence was subcloned into NdeI-XhoI sites of a pDB-His-MBP vector (kindly given by Pro. Chenggui Han, China Agricultural University, Beijing, China). Recombinant NLRP6 protein was expressed and purified following previous reports, with slight modifications. Briefly, the protein was expressed in E. coli (DE3) at 16 °C with 0.5 mM IPTG induction overnight. Then, the protein was purified by Ni affinity and gel filtration chromatography. The p85α WT and p85α mutant sequences were chemically synthesized and subcloned into BamHI-XhoI sites of a pGEX-6P-1 plasmid by GenScript (Nanjing, China). The E. coli (DE3) transformed with the plasmids were grown in LB medium at 37 °C. The culture medium was supplemented with 0.5 mM IPTG followed by incubation at 16 °C for 16–18 h. The proteins were purified by glutathione-affinity chromatography (Smart-Life Sciences, Changzhou, China) followed by gel filtration chromatography (Cytiva, MA, USA) using PBS. The protein extinction coefficient was calculated by ProtParam, and the protein concentration was determined by the ultraviolet spectrophotometry method.
# The 96-well plate was coated with bovine serum albumin (BSA) or purified NLRP6. HRP-conjugated PepC or HRP-conjugated Pep9 was incubated with BSA or NLRP6 for 1 h, and the unbound peptide was washed away. The HRP substrate was added, and the absorbance was detected at 450 nm. For the competitive ELISA, the 96-well plate was coated with purified p85α. The binding of NLRP6 to p85α competed with 10 μM PepC or 5 μM, 10 μM, 20 μM Pep9 for 1 h.
molecule,measurement,setting,value
"CO/C1=C\C(C)=C\[C@@H](C)[C@@H](O)[C@@H](C)C/C(C)=C/C=C/[C@H](OC)[C@@H]([C@@H](C)[C@@H](O)[C@H](C)[C@@]2(O)C[C@@H](O)[C@H](C)[C@@H](C(C)C)O2)OC1=O [bafilomycin A1 (BafA1), bafilomycin A1]",NLRP6-induced p85α degradation (in words),[1],attenuated NLRP6-induced p85α degradation
Cl.N [NH4Cl],NLRP6-induced p85α degradation (in words),[1],attenuated NLRP6-induced p85α degradation
"CCN(CC)CCCC(C)Nc1ccnc2cc(Cl)ccc12 (stereo not shown) [chloroquine (CQ), chloroquine]",NLRP6-induced p85α degradation (in words),[1],attenuated NLRP6-induced p85α degradation
"Cn1cnc(N)c2ncnc1-2 [3-methyladenine (3-MA), 3-methyladenine]",NLRP6-induced p85α degradation (in words),[1],attenuated NLRP6-induced p85α degradation
NC1(c2ccc(-c3nc4ccn5c(=O)[nH]nc5c4cc3-c3ccccc3)cc2)CCC1 [MK-2206],AKT inhibition (in words),[2],highly potent and selective allosteric AKT inhibitor
same,PI3K/AKT activation by NLRP6 overexpression (in words),[3],NLRP6 overexpression could not activate PI3K/AKT pathway anymore when MK-2206 was introduced
CC(C)C[C@H](NC(=O)[C@H](CC(N)=O)NC(=O)[C@H](CCCCN)NC(=O)[C@H](CO)NC(=O)[C@H](CO)NC(=O)[C@@H](NC(=O)[C@H](CCC(N)=O)NC(=O)[C@H](CO)NC(=O)[C@H](CC(C)C)NC(=O)[C@H](CCCCN)NC(=O)[C@H](Cc1ccccc1)NC(=O)[C@H](Cc1ccccc1)NC(=O)[C@H](Cc1c[nH]cn1)NC(=O)[C@H](CCCCN)NC(=O)[C@H](CC(C)C)NC(=O)[C@H](CC(C)C)NC(=O)[C@H](Cc1ccc(O)cc1)NC(=O)[C@H](CCC(N)=O)NC(=O)[C@H](CC(C)C)NC(=O)[C@@H](NC(=O)[C@H](CC(C)C)NC(=O)[C@H](Cc1c[nH]c2ccccc12)NC(=O)[C@H](Cc1ccc(O)cc1)NC(=O)[C@H](CCC(N)=O)NC(=O)[C@H](Cc1c[nH]cn1)NC(=O)[C@@H]1CCCN1)[C@@H](C)O)[C@@H](C)O)C(=O)O [Pep9] (H-PHQYWLTLQYLLKHFFKLSQTSSKNL-OH),Kd,[4],9 µM
CCOC(=O)C1=C(N)Oc2ccc(Cl)cc2C1C(C#N)C(=O)OCC (stereo not shown) [SC-79],AKT binding and activation (in words),[2]; cytosol,specifically binds to the PH domain of AKT and activates AKT in the cytosol
same,effect of SC-79 on Pep9 inhibition of PI3K/AKT pathway (in words),[5],The inhibition of Pep9 on PI3K/AKT pathway was reversed when SC79 was added
B1,binding of HRP-conjugated peptide to NLRP6 (in words),[6],could bind to NLRP6
